19 compounds from ChEMBL document CHEMBL3046842, “Antimicrobial and insect antifeedant activities of some Trogers bases” (2012) can be followed below.

Calls of active or inactive are those of the source.

One test has as its system Proteus vulgaris. Kind of test: Antibacterial activity against Proteus vulgaris at 250 ug/ml after 24 to 45 hrs by disc diffusion method. Type of test: functional. Conditions: for zone of inhibition at 250 µg/mL: read-out: IZ. (A growth-free zone around the sample is the usual read-out of agar diffusion tests.)
A further test has as its system Candida albicans. As to the kind of experiment: Antifungal activity against Candida albicans at 250 ug/ml after 72 hrs by disc diffusion method. The settings on record: for zone of inhibition at 250 µg/mL: read-out: IZ. The class given is functional.
For another test, the system named is Escherichia coli. As to the kind of experiment: Antibacterial activity against Escherichia coli at 250 ug/ml after 24 to 45 hrs by disc diffusion method. Type of test: functional. Conditions: read-out: IZ.
The subject of another test is Staphylococcus aureus. As to the kind of experiment: Antibacterial activity against Staphylococcus aureus at 250 ug/ml after 24 to 45 hrs by disc diffusion method. The class given is functional. The settings on record: read-out: IZ.
The subject of the next test is Penicillium. As to the kind of experiment: Antifungal activity against Penicillium at 50 ug/ml after 72 hrs by disc diffusion method. The class given is functional, organism-based.
A further test concerns Enterococcus faecalis. Kind of test: Antibacterial activity against Enterococcus faecalis at 250 ug/ml after 24 to 45 hrs by disc diffusion method. Type of test: functional. Conditions: for zone of inhibition at 250 µg/mL: read-out: IZ.
A further test has as its system Klebsiella pneumoniae. Kind of test: Antibacterial activity against Klebsiella pneumoniae at 250 ug/ml after 24 to 45 hrs by disc diffusion method. The class given is functional. The settings on record: read-out: IZ.
The next test has as its system Pseudomonas. Kind of test: Antibacterial activity against Pseudomonas at 250 ug/ml after 24 to 45 hrs by disc diffusion method. Type of test: functional. The settings on record: read-out: IZ.
Another test relates to Aspergillus niger. As to the kind of experiment: Antifungal activity against Aspergillus niger at 50 ug/ml after 72 hrs by disc diffusion method. Type of test: functional, organism-based.

On to `Cc1cc(Br)c2c(c1)CN1CN2Cc2cc(C)cc(Br)c21`, for which the zone of inhibition at 250 µg/mL in the test with Proteus vulgaris was 13 mm; in the test with Candida albicans it was 8 mm; in the test with Escherichia coli, 13 mm; in the test on Staphylococcus aureus it was 13 mm; in the test on Klebsiella pneumoniae, 13 mm; with Pseudomonas it was 13 mm. For the same compound, the outcome in the test with Penicillium, in the test on Enterococcus faecalis and in the test on Aspergillus niger was inactive.

In the case of `Cc1ccc2c(c1)CN1CN2Cc2cc(C)ccc21`, the zone of inhibition at 250 µg/mL turned out to be 8 mm with Proteus vulgaris; 13 mm in the test with Candida albicans; 8 mm in the test on Escherichia coli; 13 mm with Staphylococcus aureus; 8 mm with Klebsiella pneumoniae; 8 mm in the test with Pseudomonas. For the same compound, the result in the test on Penicillium, in the test on Enterococcus faecalis and in the test with Aspergillus niger was inactive.

Take `Cc1cc(N)cc2c1N1Cc3cc(N)cc(C)c3N(C2)C1`: the zone of inhibition at 250 µg/mL in the test with Proteus vulgaris worked out at 13 mm; in the test on Candida albicans it was 13 mm; in the test with Escherichia coli it was 13 mm; in the test with Staphylococcus aureus, 13 mm; in the test with Enterococcus faecalis, 8 mm; in the test on Klebsiella pneumoniae, 13 mm. The zone of inhibition at 250 µg/mL with Pseudomonas came to 13 mm. For the same compound, the outcome in the test with Penicillium and in the test on Aspergillus niger was inactive.

With `Cc1cc(N)c2c(c1)CN1CN2Cc2cc(C)cc(N)c21`, the zone of inhibition at 250 µg/mL in the test on Proteus vulgaris, with Candida albicans, in the test with Escherichia coli, in the test on Staphylococcus aureus, in the test on Klebsiella pneumoniae and in the test on Pseudomonas was 13 mm each time. Also, the result in the test on Penicillium was Active. Further, the outcome with Enterococcus faecalis and in the test on Aspergillus niger was inactive.

In the case of `Cc1cccc2c1N1Cc3cccc(C)c3N(C2)C1`, the zone of inhibition at 250 µg/mL in the test with Proteus vulgaris came out at 8 mm; in the test on Candida albicans, 13 mm; in the test on Escherichia coli, 8 mm; in the test on Staphylococcus aureus it was 8 mm; in the test with Enterococcus faecalis, 13 mm; in the test on Klebsiella pneumoniae it was 13 mm. In addition, the zone of inhibition at 250 µg/mL in the test with Pseudomonas amounted to 13 mm. In addition, the result in the test on Penicillium and with Aspergillus niger was inactive.

As for `Cc1cc(C)c2c(c1)CN1CN2Cc2cc(C)cc(C)c21`, the zone of inhibition at 250 µg/mL in the test with Proteus vulgaris was determined as 13 mm; in the test with Candida albicans, 13 mm; in the test on Escherichia coli, 13 mm; in the test on Staphylococcus aureus it was 13 mm; with Enterococcus faecalis it was 8 mm; with Klebsiella pneumoniae, 13 mm. Besides, the zone of inhibition at 250 µg/mL in the test with Pseudomonas stood at 8 mm. Also, the result in the test on Penicillium and with Aspergillus niger was inactive.

Take `N#Cc1ccc2c(c1)CN1CN2Cc2cc(C#N)ccc21`: the zone of inhibition at 250 µg/mL in the test on Proteus vulgaris, in the test with Candida albicans, in the test on Escherichia coli, with Staphylococcus aureus, with Klebsiella pneumoniae and in the test on Pseudomonas was 13 mm in each case. Further, the outcome with Penicillium, in the test on Enterococcus faecalis and with Aspergillus niger was inactive.

On to `Cc1ccc2c(c1O)CN1CN2Cc2c1ccc(C)c2O`, for which the zone of inhibition at 250 µg/mL with Proteus vulgaris is 8 mm; with Candida albicans it was 13 mm; in the test on Escherichia coli, 8 mm; in the test on Staphylococcus aureus, 13 mm; with Enterococcus faecalis, 13 mm; in the test with Klebsiella pneumoniae it was 8 mm. Besides, in the test on Pseudomonas, the zone of inhibition at 250 µg/mL worked out at 8 mm. In addition, the outcome in the test on Penicillium and in the test with Aspergillus niger was inactive.

Turning to `Cc1cc([N+](=O)[O-])cc2c1N1Cc3cc([N+](=O)[O-])cc(C)c3N(C2)C1`, the zone of inhibition at 250 µg/mL in the test on Proteus vulgaris came to 13 mm; with Candida albicans it was 13 mm; with Escherichia coli it was 13 mm; in the test with Staphylococcus aureus, 13 mm; in the test on Enterococcus faecalis it was 8 mm; in the test with Klebsiella pneumoniae, 13 mm. Moreover, the zone of inhibition at 250 µg/mL with Pseudomonas was 13 mm. Moreover, the result in the test on Penicillium and in the test with Aspergillus niger was inactive.

With `COc1cc(C)c2c(c1)CN1CN2Cc2cc(OC)cc(C)c21`, the zone of inhibition at 250 µg/mL in the test on Proteus vulgaris came to 8 mm; in the test on Candida albicans it was 20 mm; in the test on Escherichia coli, 20 mm; in the test with Staphylococcus aureus it was 20 mm; in the test with Enterococcus faecalis, 13 mm; in the test on Klebsiella pneumoniae it was 20 mm. The zone of inhibition at 250 µg/mL in the test on Pseudomonas stood at 20 mm. Further, the result in the test with Penicillium was Active. Moreover, in the test on Aspergillus niger, the outcome was inactive.

Regarding `Cc1ccc2c(c1C)N1Cc3ccc(C)c(C)c3N(C2)C1`, the result with Proteus vulgaris and in the test with Aspergillus niger was inactive. Besides, the zone of inhibition at 250 µg/mL in the test with Candida albicans was determined as 8 mm; in the test with Escherichia coli, 13 mm; with Staphylococcus aureus, 8 mm; in the test with Enterococcus faecalis, 8 mm; with Klebsiella pneumoniae it was 13 mm; with Pseudomonas it was 8 mm. Also, the result in the test with Penicillium was Active.

As for `CCCOC(=O)c1ccc2c(c1)CN1CN2Cc2cc(C(=O)OCCC)ccc21`, the zone of inhibition at 250 µg/mL with Proteus vulgaris is 13 mm; with Candida albicans it was 13 mm; in the test with Escherichia coli, 13 mm; in the test on Staphylococcus aureus, 20 mm; in the test with Enterococcus faecalis, 20 mm; in the test on Klebsiella pneumoniae, 20 mm. The zone of inhibition at 250 µg/mL in the test on Pseudomonas came to 20 mm. In addition, the outcome with Penicillium and with Aspergillus niger was Active.

With `Cc1cc(C#N)c2c(c1)CN1CN2Cc2cc(C)cc(C#N)c21`, the zone of inhibition at 250 µg/mL in the test on Proteus vulgaris was determined as 8 mm; in the test on Candida albicans, 13 mm; in the test on Escherichia coli it was 13 mm; in the test on Staphylococcus aureus it was 8 mm; in the test on Klebsiella pneumoniae it was 8 mm; in the test on Pseudomonas it was 8 mm. In addition, the outcome with Penicillium, in the test on Enterococcus faecalis and in the test with Aspergillus niger was inactive.

For `CCOC(=O)c1ccc2c(c1)CN1CN2Cc2cc(C(=O)OCC)ccc21`, the zone of inhibition at 250 µg/mL was 13 mm in the test with Proteus vulgaris; 20 mm in the test on Escherichia coli; 20 mm with Staphylococcus aureus; 20 mm in the test with Enterococcus faecalis; 13 mm in the test on Klebsiella pneumoniae; 20 mm in the test on Pseudomonas. For the same compound, the result with Candida albicans, with Penicillium and with Aspergillus niger was inactive.

Take `Cc1cc2c(cc1Br)N1Cc3cc(C)c(Br)cc3N(C2)C1`: the zone of inhibition at 250 µg/mL was 8 mm with Proteus vulgaris; 13 mm in the test with Candida albicans; 8 mm with Escherichia coli; 13 mm in the test on Staphylococcus aureus; 13 mm in the test on Enterococcus faecalis; 8 mm with Klebsiella pneumoniae. Moreover, the zone of inhibition at 250 µg/mL in the test on Pseudomonas is 8 mm. For the same compound, the outcome with Penicillium and in the test on Aspergillus niger was inactive.

As for `O=[N+]([O-])c1ccc2c(c1)CN1CN2Cc2cc([N+](=O)[O-])ccc21`, the zone of inhibition at 250 µg/mL with Proteus vulgaris stood at 13 mm; in the test with Escherichia coli it was 20 mm; in the test on Staphylococcus aureus it was 13 mm; in the test with Enterococcus faecalis it was 20 mm; with Klebsiella pneumoniae, 13 mm; in the test with Pseudomonas, 13 mm. Also, the outcome with Candida albicans, with Penicillium and in the test with Aspergillus niger was inactive.

As to `CCOc1ccc2c(c1)CN1CN2Cc2cc(OCC)ccc21`, the zone of inhibition at 250 µg/mL with Proteus vulgaris amounted to 13 mm; in the test on Candida albicans it was 8 mm; in the test with Escherichia coli, 20 mm; in the test on Staphylococcus aureus, 20 mm; with Klebsiella pneumoniae, 13 mm; in the test on Pseudomonas it was 20 mm. Also, the outcome in the test with Penicillium and in the test on Aspergillus niger was Active. Besides, the outcome in the test on Enterococcus faecalis was inactive.

As to `Nc1ccc2c(c1)CN1CN2Cc2cc(N)ccc21`, the zone of inhibition at 250 µg/mL in the test with Proteus vulgaris, with Candida albicans, with Escherichia coli, with Staphylococcus aureus, in the test on Klebsiella pneumoniae and in the test with Pseudomonas was 13 mm in each case. Also, the result in the test with Penicillium, in the test with Enterococcus faecalis and in the test with Aspergillus niger was inactive.

Regarding `CC(=O)c1cccc2c1N1Cc3cccc(C(C)=O)c3N(C2)C1`, the zone of inhibition at 250 µg/mL in the test on Proteus vulgaris was found to be 8 mm; in the test with Candida albicans, 20 mm; with Escherichia coli it was 8 mm; in the test with Staphylococcus aureus it was 13 mm; with Klebsiella pneumoniae, 8 mm; in the test with Pseudomonas, 8 mm. Besides, the result in the test on Penicillium and in the test on Enterococcus faecalis was inactive. In addition, the outcome in the test with Aspergillus niger was Active.
